From patent US20200368247A1, “CENICRIVIROC FOR THE TREATMENT OF FIBROSIS” (Tobira Therapeutics, Inc., priority 2014, published 2020)
Like-named read-outs stand apart in the source and are kept apart here.

Legend:
[1] = for SAE: Suicidal ideation: through Week 48
Excerpt: Subjects with a history of HIV-2, hepatitis B and/or C, cirrhosis of the liver or any known active or chronic active liver disease were excluded from the study.
Most AEs were mild or moderate (Grade 1 or Grade 2). […] None of the Grade ≥3 AEs (preferred terms) were reported in more than 1 subject. Table 28 provides an overview of deaths, SAES, AEs, AEs by severity, AEs related to study medication, and AE leading to discontinuation.

[2] = Study 202 fasting metabolic laboratory parameters; assay type: in vivo, human; details: All CVC (N = 115); EFV (N = 28), through Week 48
Excerpt: All abnormalities in total cholesterol, LDL cholesterol, triglycerides, or glucose were Grade 1 or Grade 2.
Mean baseline values and changes from baseline in HbA1c, HOMA-IR, fasting LDL, fasting HDL, fasting total cholesterol, fasting total cholesterol/HDL ratio, and fasting triglycerides are shown in Table 36.

[3] = All CVC (N = 115), EFV (N = 28)

CCCCOCCOc1ccc(-c2ccc3c(c2)/C=C(/C(=O)Nc2ccc([S@@+]([O-])Cc4cncn4CCC)cc2)CCCN3CC(C)C)cc1 [CVC, (S)-8-[4-(2-Butoxyethoxy)phenyl]-1-isobutyl-N-(4-{[(1-propyl-1H-imidazol-5-yl)methyl]sulfinyl}phenyl)-1,2,3,4-tetrahydro-1-benzazocine-5-carboxamide]
Deaths [1, 3]: 0 n
SAE: Suicidal ideation [1, 3]: 0 n
Grade 3 or 4 AE: Suicidal ideation ([1]; All CVC (N = 115), EFV (N = 28; Grade 4 event)): 0 n
Deaths ([1]; CVC 100 mg (N = 58)): 0 n
Grade 3 or 4 AE: Suicidal ideation ([1]; CVC 100 mg (N = 58)): 0 n
SAE: Suicidal ideation ([1]; CVC 100 mg (N = 58)): 0 n
Deaths ([1]; CVC 200 mg (N = 57)): 0 n
Grade 3 or 4 AE: Suicidal ideation ([1]; CVC 200 mg (N = 57)): 0 n
SAE: Suicidal ideation ([1]; CVC 200 mg (N = 57)): 0 n
AE leading to discontinuation: Abnormal dreams ([1]; human, in vivo, 48 week): 0 n
AE leading to discontinuation: Aggression ([1]; human, in vivo, 48 week): 1 n
AE leading to discontinuation: Anxiety ([1]; human, in vivo, 48 week): 0 n
AE leading to discontinuation: Depression ([1]; human, in vivo, 48 week): 1 n
AE leading to discontinuation: Dermatitis allergic ([1]; human, in vivo, 48 week): 0 n
AE leading to discontinuation: Ear and labyrinth disorders ([1]; human, in vivo, 48 week): 0 n
AE leading to discontinuation: Insomnia ([1]; human, in vivo, 48 week): 0 n
AE leading to discontinuation: Psychiatric disorders ([1]; human, in vivo, 48 week): 1 n
AE leading to discontinuation: Rash ([1]; human, in vivo, 48 week): 0 n
AE leading to discontinuation: Skin and subcutaneous tissue disorders ([1]; human, in vivo, 48 week): 0 n
AE leading to discontinuation: Tachyphrenia ([1]; human, in vivo, 48 week): 0 n
AE leading to discontinuation: Thinking abnormal ([1]; human, in vivo, 48 week): 1 n
AE leading to discontinuation: Tinnitus ([1]; human, in vivo, 48 week): 0 n
Any AE, % ([1]; human, in vivo, 48 week): (86%)
Depression, % ([1]; human, in vivo, 48 week): (3%)
Diarrhoea, % ([1]; human, in vivo, 48 week): (15%)
Fatigue, % ([1]; human, in vivo, 48 week): (12%)
Headache, % ([1]; human, in vivo, 48 week): (14%)
Nausea, % ([1]; human, in vivo, 48 week): (16%)
Rash, % ([1]; human, in vivo, 48 week): (12%)
Subjects with AEs leading to discontinuation of study medication ([1]; human, in vivo, 48 week): 1 n
Subjects with AEs related to study medication ([1]; human, in vivo, 48 week): 54 n
Subjects with AEs, by worst grade severity: Grade 1 ([1]; human, in vivo, 48 week): 50 n
Subjects with AEs, by worst grade severity: Grade 2 ([1]; human, in vivo, 48 week): 44 n
Subjects with AEs, by worst grade severity: Grade 3 ([1]; human, in vivo, 48 week): 5 n
Subjects with AEs, by worst grade severity: Grade 4 ([1]; human, in vivo, 48 week): 0 n
Syphilis, % ([1]; human, in vivo, 48 week): (1%)
Upper respiratory tract infection, % ([1]; human, in vivo, 48 week): (16%)
AE leading to discontinuation: Disturbance in attention ([1]; human, in vivo, 48 weeks): 0 n
AE leading to discontinuation: Dizziness ([1]; human, in vivo, 48 weeks): 0 n
AE leading to discontinuation: Eye disorders ([1]; human, in vivo, 48 weeks): 0 n
AE leading to discontinuation: Gastrointestinal disorders ([1]; human, in vivo, 48 weeks): 0 n
AE leading to discontinuation: General disorders and administration site conditions ([1]; human, in vivo, 48 weeks): 1 n
AE leading to discontinuation: Hypoaesthesia ([1]; human, in vivo, 48 weeks): 0 n
AE leading to discontinuation: Malaise ([1]; human, in vivo, 48 weeks): 1 n
AE leading to discontinuation: Musculoskeletal and connective tissue disorders ([1]; human, in vivo, 48 weeks): 0 n
AE leading to discontinuation: Musculoskeletal discomfort ([1]; human, in vivo, 48 weeks): 0 n
AE leading to discontinuation: Nausea ([1]; human, in vivo, 48 weeks): 0 n
AE leading to discontinuation: Nervous system disorders ([1]; human, in vivo, 48 weeks): 0 n
AE leading to discontinuation: Photophobia ([1]; human, in vivo, 48 weeks): 0 n
Abnormal dreams, % ([1]; human, in vivo, 48 weeks): (8%)
Any AE leading to discontinuation of study drug ([1]; human, in vivo, 48 weeks): 1 n
Any Grade 3 AE ([1]; human, in vivo, 48 weeks): 5 n
Any Grade 4 AE ([1]; human, in vivo, 48 weeks): 0 n
Any SAE ([1]; human, in vivo, 48 weeks): 2 n
Dizziness, % ([1]; human, in vivo, 48 weeks): (10%)
Grade 3 or 4 AE: Abdominal pain ([1]; human, in vivo, 48 weeks): 1 n
Grade 3 or 4 AE: Blindness unilateral ([1]; human, in vivo, 48 weeks): 1 n
Grade 3 or 4 AE: Blood creatine phosphokinase increased ([1]; human, in vivo, 48 weeks): 1 n
Grade 3 or 4 AE: Cardiac disorders ([1]; human, in vivo, 48 weeks): 1 n
Grade 3 or 4 AE: Corneal infection ([1]; human, in vivo, 48 weeks): 1 n
Grade 3 or 4 AE: Depression ([1]; human, in vivo, 48 weeks): 0 n
Grade 3 or 4 AE: Dermatitis allergic ([1]; human, in vivo, 48 weeks): 0 n
Grade 3 or 4 AE: Ear and labyrinth disorders ([1]; human, in vivo, 48 weeks): 0 n
Grade 3 or 4 AE: Eye disorders ([1]; human, in vivo, 48 weeks): 1 n
Grade 3 or 4 AE: Gastrointestinal disorders ([1]; human, in vivo, 48 weeks): 1 n
Grade 3 or 4 AE: General disorders and administration site conditions ([1]; human, in vivo, 48 weeks): 1 n
Grade 3 or 4 AE: Infections and infestations ([1]; human, in vivo, 48 weeks): 1 n
Grade 3 or 4 AE: Investigations ([1]; human, in vivo, 48 weeks): 1 n
Grade 3 or 4 AE: Palpitations ([1]; human, in vivo, 48 weeks): 1 n
Grade 3 or 4 AE: Psychiatric disorders ([1]; human, in vivo, 48 weeks): 1 n
Grade 3 or 4 AE: Pyrexia ([1]; human, in vivo, 48 weeks): 1 n
Grade 3 or 4 AE: Skin and subcutaneous tissue disorders ([1]; human, in vivo, 48 weeks): 0 n
Grade 3 or 4 AE: Stress ([1]; human, in vivo, 48 weeks): 1 n
Grade 3 or 4 AE: Tinnitus ([1]; human, in vivo, 48 weeks): 0 n
Grade 3 or 4 AE: Weight decreased ([1]; human, in vivo, 48 weeks): 0 n
Insomnia, % ([1]; human, in vivo, 48 weeks): (6)
Lymphadenopathy, % ([1]; human, in vivo, 48 weeks): (6%)
Nasopharyngitis, % ([1]; human, in vivo, 48 weeks): (9%)
SAE: Blindness unilateral ([1]; human, in vivo, 48 weeks): 1 n
SAE: Corneal infection ([1]; human, in vivo, 48 weeks): 1 n
SAE: Depression ([1]; human, in vivo, 48 weeks): 0 n
SAE: Eye disorders ([1]; human, in vivo, 48 weeks): 1 n
SAE: Gastroenteritis ([1]; human, in vivo, 48 weeks): 1 n
SAE: Infections and infestations ([1]; human, in vivo, 48 weeks): 2 n
SAE: Psychiatric disorders ([1]; human, in vivo, 48 weeks): 0 n
Subjects with serious AEs ([1]; human, in vivo, 48 weeks): 2 n
Subjects with ≥1 AE ([1]; human, in vivo, 48 weeks): 99 n
Any fasting laboratory abnormality, worst Grade 1 [2]: 9 (8%) n (%)
Any fasting laboratory abnormality, worst Grade 2 [2]: 7 (6%) n (%)
Any fasting laboratory abnormality, worst Grade 3 [2]: 0 n (%)
